Here are results for one compound from publication PMC8279416, “Structural Fine-Tuning of Desmuramylpeptide NOD2 Agonists Defines Their In Vivo Adjuvant Activity” (Journal of Medicinal Chemistry, 2021).

Common to all, as to type: cell-based
In experiment [1] the target is T1, NOD2 (Homo sapiens, UniProt Q9HC29).
T1 construct: host or cells: HEK-Blue NOD2 cells (HEK293-derived)
The experiment is described as follows: HEK-Blue NOD2 cell line reporter assay (NF-κB-inducible SEAP). Conditions: HEK-Blue NOD2 cells, 18 h, mean ± SEM.

The next experiment deals with T2, NOD1 (Homo sapiens, UniProt Q9Y239).
T2 construct: host or cells: HEK-Blue NOD1 cells (HEK293-derived)
T2 sequence (Q9Y239 1-953): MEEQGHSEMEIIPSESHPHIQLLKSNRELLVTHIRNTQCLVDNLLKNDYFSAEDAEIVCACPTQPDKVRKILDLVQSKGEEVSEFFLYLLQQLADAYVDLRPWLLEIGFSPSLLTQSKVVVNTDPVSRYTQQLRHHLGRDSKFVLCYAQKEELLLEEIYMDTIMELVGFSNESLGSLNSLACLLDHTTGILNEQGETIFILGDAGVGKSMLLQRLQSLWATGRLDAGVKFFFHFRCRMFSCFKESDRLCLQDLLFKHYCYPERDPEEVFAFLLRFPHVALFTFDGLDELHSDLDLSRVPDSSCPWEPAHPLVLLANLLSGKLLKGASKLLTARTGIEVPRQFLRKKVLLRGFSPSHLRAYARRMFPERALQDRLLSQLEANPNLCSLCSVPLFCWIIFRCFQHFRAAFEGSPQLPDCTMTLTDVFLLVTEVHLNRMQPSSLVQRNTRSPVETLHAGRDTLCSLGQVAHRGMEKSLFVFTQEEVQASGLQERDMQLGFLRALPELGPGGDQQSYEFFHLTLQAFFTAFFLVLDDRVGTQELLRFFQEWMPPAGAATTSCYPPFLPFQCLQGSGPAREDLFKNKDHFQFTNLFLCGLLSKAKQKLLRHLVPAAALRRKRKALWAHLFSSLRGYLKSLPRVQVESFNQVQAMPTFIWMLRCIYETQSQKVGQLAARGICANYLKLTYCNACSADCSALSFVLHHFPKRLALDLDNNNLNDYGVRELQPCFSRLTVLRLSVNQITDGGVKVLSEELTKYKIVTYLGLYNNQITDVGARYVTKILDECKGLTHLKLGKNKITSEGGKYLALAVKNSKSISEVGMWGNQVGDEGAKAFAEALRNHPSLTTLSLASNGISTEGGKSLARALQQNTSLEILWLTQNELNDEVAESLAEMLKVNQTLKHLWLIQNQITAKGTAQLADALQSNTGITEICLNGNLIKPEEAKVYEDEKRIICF
Description: HEK-Blue NOD1 cell line reporter assay (selectivity). Particulars: HEK-Blue NOD1 cells, 2 μM, 18 h. Here is the method:
As NOD2 and NOD1 agonists share certain structural characteristics, we wanted to determine whether these compounds selectively target NOD2. Selectivity against NOD1 of MDP and all of these synthesized desmuramylpeptides was analyzed in an analogous assay with the HEK-Blue NOD1 cell line.
(§1) HEK-Blue NOD2 and NOD1 cell line reporter assays are derived from HEK293 cells by cotransfection of the hNOD2 or hNOD1 genes, respectively, and an NF-κB-inducible secreted embryonic alkaline phosphatase (SEAP) reporter gene. Following activation of NOD2 or NOD1, the resulting NF-κB induces production of SEAP, the levels of which can be quantified colorimetrically. […] After 18 h of incubation (37 °C, 5% CO2), secreted embryonic alkaline phosphatase (SEAP) activity was determined spectrophotometrically as absorbance at 630 nm (BioTek Synergy microplate reader; Winooski, VT, U.S.A.). EC50 values were calculated using Prism software (version 9; GraphPad Software, CA, U.S.A.). For determination of specificity, HEK-Blue NOD2 cells (2.5 × 10^5 cells/mL) were first pretreated for 1 h with a 10 μM NOD2 antagonist, before the addition of the compounds (2 μM), with incubation for 18 h. SEAP activity in the supernatants was determined as above. The experiments were run in duplicate and repeated as at least two independent biological replicates.
Supporting figure S2. NOD1 agonistic activities of desmuramylpeptides. […]
In general terms: Reporter assays use an easily measured gene product as a stand-in for the process of interest.

In experiment [2] the target is T1, NOD2. Description: Specificity: NOD2 antagonist pretreatment of HEK-Blue NOD2 cells. Conditions: 10 μM NOD2 antagonist 1 h, then 2 μM compound 18 h. Here is the method: Furthermore, the specificities were determined by pretreating HEK-Blue NOD2 cells with a previously reported NOD2 antagonist[77] prior to stimulation with MDP (2 μM) or the desmuramylpeptides (2 μM). The resulting NF-κB-induced SEAP activities were compared to those of the controls without the NOD2 antagonist pretreatment.
as §1
Supporting figure S2. […]

Broadly, the EC50 is the concentration giving half of the maximal effect.

T1 sequence (Q9HC29 whole entry): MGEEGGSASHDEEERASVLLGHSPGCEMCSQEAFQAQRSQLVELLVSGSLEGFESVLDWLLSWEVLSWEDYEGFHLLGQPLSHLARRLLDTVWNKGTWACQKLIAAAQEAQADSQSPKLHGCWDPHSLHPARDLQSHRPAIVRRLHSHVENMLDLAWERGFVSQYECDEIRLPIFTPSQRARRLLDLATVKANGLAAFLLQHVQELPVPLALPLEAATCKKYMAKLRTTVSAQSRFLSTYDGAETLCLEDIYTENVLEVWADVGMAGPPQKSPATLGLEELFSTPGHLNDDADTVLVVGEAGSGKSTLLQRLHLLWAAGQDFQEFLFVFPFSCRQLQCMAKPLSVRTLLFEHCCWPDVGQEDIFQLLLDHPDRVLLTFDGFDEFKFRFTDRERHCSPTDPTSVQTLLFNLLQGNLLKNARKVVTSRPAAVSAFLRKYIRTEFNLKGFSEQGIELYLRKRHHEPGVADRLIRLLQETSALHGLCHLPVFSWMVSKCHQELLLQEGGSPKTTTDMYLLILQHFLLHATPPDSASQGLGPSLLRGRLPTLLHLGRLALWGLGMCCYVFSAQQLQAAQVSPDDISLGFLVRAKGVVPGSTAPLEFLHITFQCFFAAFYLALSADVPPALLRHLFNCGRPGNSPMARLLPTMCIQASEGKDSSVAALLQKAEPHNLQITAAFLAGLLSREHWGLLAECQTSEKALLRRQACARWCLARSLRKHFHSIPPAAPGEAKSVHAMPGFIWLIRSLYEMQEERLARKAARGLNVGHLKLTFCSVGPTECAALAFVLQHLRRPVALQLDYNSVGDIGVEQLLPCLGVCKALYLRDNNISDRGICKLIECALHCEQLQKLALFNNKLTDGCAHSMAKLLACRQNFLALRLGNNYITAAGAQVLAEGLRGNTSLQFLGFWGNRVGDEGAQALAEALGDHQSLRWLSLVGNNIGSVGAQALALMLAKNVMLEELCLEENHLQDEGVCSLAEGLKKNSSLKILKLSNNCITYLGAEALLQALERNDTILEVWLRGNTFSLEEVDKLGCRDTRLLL

With `CCOC(=O)CC[C@@H](NC(=O)[C@@H](NC(=O)CNC(=O)/C=C/c1ccc(O)c(O)c1)C(C)C)C(=O)OCC` [Compound 21, Diethyl ((E)-3-(3,4-Dihydroxyphenyl)acryloyl)glycyl-L-valyl-D-glutamate], the “NOD2 activity at 2 μM (fold increase)” value on NOD2 [1] (2 μM, NF-κB transcriptional (SEAP) activity relative to 0.1% DMSO) turned out to be 2.28 ± 0.07 fold increase. Also, on NOD2 [1] (7 or 8 concentrations 1 nM to 20 μM), the EC50 worked out at 1.73 ± 0.101 µM. Also, the NOD1 agonistic activity entry on NOD1 was “showed no activity in the NOD1 assay”. Besides, the “NF-κB transcriptional activity after NOD2 antagonist pretreatment” value at NOD2 [2] was “reduced NOD2 activation”.
